From ChEMBL document CHEMBL1201862, “PubChem BioAssay data set” (2004)
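Each compound was tested at five concentrations against cells in 96-well plates for 48 hours. At the GI50, growth is halved.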 Calls of active or inactive are those of the source. No stated cut-off is given here; in the data, active = GI50 up to about 1.1 µM and inactive = higher.

Key:
Assay in all cases: NCI-60 cell line screen, 48 h
COLO 205 = system: COLO 205
SK-MEL-5 = system: SK-MEL-5
SK-OV-3 = system: SK-OV-3
OVCAR-3 = system: OVCAR-3
NCI-H226 = system: NCI-H226
IGROV-1 = system: IGROV-1
K562 = system: K562
SK-MEL-2 = system: SK-MEL-2
A549 = system: A549
CCRF-CEM = system: CCRF-CEM
SNB-75 = system: SNB-75
NCI-H460 = system: NCI-H460
UACC-257 = system: UACC-257
CAKI-1 = system: CAKI-1
KM12 = system: KM12
RXF 393 = system: RXF 393
M14 = system: M14
TK-10 = system: TK-10

Measured: GI50

COc1cc(/C=C(/C#N)C(N)=O)ccc1O
inactive: COLO 205 > 100 µM | SK-MEL-5 > 22.2 µM | SK-OV-3 > 100 µM | OVCAR-3 > 100 µM | NCI-H226 > 88.9 µM | IGROV-1 > 100 µM | K562 > 100 µM | SK-MEL-2 > 70.8 µM | A549 > 100 µM | CCRF-CEM > 100 µM | SNB-75 > 50.1 µM | NCI-H460 > 100 µM | UACC-257 > 100 µM | CAKI-1 > 100 µM | KM12 > 100 µM

OCN(CO)c1ccc2c(c1)Cc1cc(F)ccc1-2
inactive: COLO 205 12.4 µM | SK-MEL-5 11.2 µM | SK-OV-3 25.2 µM | RXF 393 24 µM | M14 21 µM | OVCAR-3 13.9 µM | NCI-H226 15.7 µM | IGROV-1 19.3 µM | K562 20.9 µM | SK-MEL-2 21 µM | A549 21.9 µM | SNB-75 19.1 µM | NCI-H460 24.7 µM | UACC-257 18.7 µM | TK-10 18.7 µM | CAKI-1 20 µM | KM12 17.8 µM

NNC(=O)N/N=C1/C(=O)N(c2ccc(Cl)c(Cl)c2)C(=O)C(=O)C1c1nc2ccccc2o1 (stereo unspecified)
inactive: COLO 205 > 100 µM | SK-MEL-5 > 100 µM | SK-OV-3 > 100 µM | M14 > 100 µM | OVCAR-3 > 100 µM | NCI-H226 > 100 µM | IGROV-1 > 100 µM | K562 > 100 µM | SK-MEL-2 > 100 µM | A549 > 100 µM | CCRF-CEM > 100 µM | SNB-75 > 100 µM | UACC-257 > 100 µM | TK-10 > 100 µM | CAKI-1 > 100 µM

Cn1cc(NC(=O)c2cc(NC(=O)CCCCCCCC(=O)Nc3cc(C(=O)Nc4cc(C(=O)NCCC(=N)N)n(C)c4)n(C)c3)cn2C)cc1C(=O)NCCC(=N)N
inactive: COLO 205 13.2 µM | SK-MEL-5 7.53 µM | SK-OV-3 > 100 µM | RXF 393 17 µM | M14 27.9 µM | OVCAR-3 32.1 µM | IGROV-1 5.82 µM | K562 11 µM | SK-MEL-2 14.1 µM | A549 13.9 µM | CCRF-CEM 25.3 µM | SNB-75 35.2 µM | NCI-H460 4.69 µM | UACC-257 5.7 µM | TK-10 15 µM | CAKI-1 18.8 µM | KM12 7.53 µM

CCCCCCCCCCCCCCNCC(OC)OC
inactive: COLO 205 14.4 µM | SK-MEL-5 15.2 µM | SK-OV-3 18.7 µM | RXF 393 14.7 µM | M14 14.1 µM | OVCAR-3 17.3 µM | NCI-H226 17.1 µM | IGROV-1 17 µM | SK-MEL-2 16.4 µM | A549 19.5 µM | CCRF-CEM 9.18 µM | SNB-75 13.8 µM | NCI-H460 17.8 µM | UACC-257 19.4 µM | TK-10 17.4 µM | KM12 13.3 µM

C=C(C)C(=O)OC1C/C(CO)=C\C(O)C/C(C)=C/C2OC(=O)C(=C)C21 (stereo unspecified)
inactive: COLO 205 17.1 µM | SK-MEL-5 21 µM | SK-OV-3 > 100 µM | M14 17.7 µM | OVCAR-3 25.1 µM | NCI-H226 27.8 µM | IGROV-1 48.4 µM | K562 18 µM | SK-MEL-2 17 µM | A549 64.4 µM | CCRF-CEM 8.65 µM | SNB-75 32.4 µM | NCI-H460 17.7 µM | TK-10 21.1 µM | CAKI-1 22.8 µM | KM12 19.2 µM

Cc1cccc(Cl)c1NC(N)=S
inactive: COLO 205 > 100 µM | SK-MEL-5 > 100 µM | SK-OV-3 44.4 µM | M14 87.5 µM | OVCAR-3 26.4 µM | NCI-H226 82.8 µM | IGROV-1 35.4 µM | K562 28.3 µM | A549 82.8 µM | CCRF-CEM 35.6 µM | SNB-75 47.1 µM | NCI-H460 51.3 µM | UACC-257 > 100 µM | TK-10 50.9 µM | CAKI-1 43.7 µM | KM12 > 100 µM

O=c1cccccc1NCCOCCNc1cccccc1=O
inactive: COLO 205 > 100 µM | SK-MEL-5 > 100 µM | SK-OV-3 > 100 µM | M14 > 100 µM | OVCAR-3 > 100 µM | NCI-H226 > 100 µM | IGROV-1 > 100 µM | K562 > 100 µM | SK-MEL-2 > 100 µM | A549 > 100 µM | CCRF-CEM > 100 µM | SNB-75 16.9 µM | NCI-H460 > 100 µM | UACC-257 > 100 µM | TK-10 > 100 µM | CAKI-1 > 100 µM | KM12 > 100 µM

O=C1N[C@@H]2CCCC[C@@H]2C12CCCCC2
inactive: SK-OV-3 > 100 µM | RXF 393 > 100 µM | M14 > 100 µM | OVCAR-3 > 100 µM | NCI-H226 > 100 µM | IGROV-1 > 100 µM | K562 > 100 µM | A549 > 100 µM | CCRF-CEM > 100 µM | SNB-75 > 100 µM | NCI-H460 > 100 µM | UACC-257 > 100 µM | TK-10 > 100 µM | KM12 > 100 µM

COC(=O)c1sc(C(=O)OC)c2c1C[S+]([O-])C2
inactive: COLO 205 > 100 µM | SK-MEL-5 > 100 µM | SK-OV-3 > 100 µM | RXF 393 > 100 µM | M14 > 100 µM | OVCAR-3 > 100 µM | NCI-H226 > 100 µM | IGROV-1 > 100 µM | K562 > 100 µM | SK-MEL-2 > 100 µM | A549 > 100 µM | CCRF-CEM > 100 µM | SNB-75 > 100 µM | UACC-257 > 100 µM | TK-10 > 100 µM | CAKI-1 > 100 µM | KM12 > 100 µM

CC(C)(C)c1ccc(O)c(C(c2ccc([N+](=O)[O-])cc2)c2cc(C(C)(C)C)ccc2O)c1
inactive: COLO 205 2.5 µM | SK-OV-3 2.11 µM | RXF 393 2.07 µM | M14 1.68 µM | OVCAR-3 1.79 µM | NCI-H226 1.78 µM | IGROV-1 2.15 µM | K562 2.73 µM | SK-MEL-2 1.81 µM | A549 1.86 µM | CCRF-CEM 2.98 µM | SNB-75 2.05 µM | UACC-257 1.79 µM | TK-10 2.53 µM | CAKI-1 1.51 µM | KM12 1.89 µM

N/C(=N\O)N/N=C\c1c(O)cc(O)cc1O
inactive: COLO 205 > 72.9 µM | SK-MEL-5 50.6 µM | SK-OV-3 > 89.1 µM | RXF 393 > 100 µM | OVCAR-3 > 65.9 µM | NCI-H226 66.7 µM | IGROV-1 44.5 µM | K562 29.2 µM | SK-MEL-2 > 100 µM | A549 45.1 µM | CCRF-CEM 31.8 µM | SNB-75 > 47.6 µM | NCI-H460 49.5 µM | UACC-257 99.3 µM | CAKI-1 > 100 µM | KM12 36.4 µM

CC1=C2C(O)C(C(C)C(=O)NCC(C)C)CCC2(C)C=CC1=O (stereo unspecified)
inactive: COLO 205 > 100 µM | SK-MEL-5 > 100 µM | RXF 393 > 100 µM | OVCAR-3 > 100 µM | NCI-H226 > 100 µM | IGROV-1 > 100 µM | K562 > 100 µM | SK-MEL-2 > 100 µM | A549 > 100 µM | CCRF-CEM > 100 µM | SNB-75 > 100 µM | NCI-H460 > 100 µM | UACC-257 > 100 µM | CAKI-1 > 100 µM | KM12 > 100 µM

O=C1c2ccccc2OCC1/C=N/O (stereo unspecified)
inactive: SK-MEL-5 > 85.5 µM | SK-OV-3 > 100 µM | RXF 393 32.4 µM | OVCAR-3 > 100 µM | NCI-H226 > 100 µM | IGROV-1 82.2 µM | K562 > 100 µM | SK-MEL-2 86.3 µM | A549 > 100 µM | CCRF-CEM > 100 µM | SNB-75 > 100 µM | NCI-H460 > 100 µM | UACC-257 > 56.1 µM | KM12 96.8 µM

CN(C)c1ccc(O[Si](Oc2ccc(N(C)C)cc2)(Oc2ccc(N(C)C)cc2)Oc2ccc(N(C)C)cc2)cc1
inactive: COLO 205 52.7 µM | SK-MEL-5 > 100 µM | SK-OV-3 > 100 µM | M14 > 100 µM | OVCAR-3 51.6 µM | NCI-H226 > 100 µM | IGROV-1 > 100 µM | K562 > 100 µM | A549 > 100 µM | CCRF-CEM 40.8 µM | SNB-75 > 100 µM | UACC-257 85.1 µM | TK-10 > 100 µM | CAKI-1 > 100 µM | KM12 71.6 µM

CCCCCCCC(=O)OC(COC(=O)Cc1ccccc1)COC(=O)C(C)(C)C (stereo unspecified)
inactive: COLO 205 46.3 µM | SK-MEL-5 74 µM | SK-OV-3 > 100 µM | M14 > 100 µM | OVCAR-3 > 100 µM | NCI-H226 > 100 µM | IGROV-1 > 100 µM | K562 52.4 µM | A549 > 100 µM | CCRF-CEM > 100 µM | NCI-H460 > 100 µM | TK-10 > 100 µM | CAKI-1 > 100 µM

O=C(/N=C(/Nc1ccccc1)SCS/C(=N\C(=O)c1ccco1)Nc1ccccc1)c1ccco1
inactive: COLO 205 > 100 µM | SK-MEL-5 61.5 µM | RXF 393 15.1 µM | M14 > 100 µM | OVCAR-3 40.8 µM | NCI-H226 28 µM | IGROV-1 63.4 µM | K562 > 100 µM | SK-MEL-2 80.2 µM | A549 41.5 µM | CCRF-CEM > 100 µM | SNB-75 16.9 µM | NCI-H460 > 100 µM | UACC-257 > 100 µM | TK-10 29.4 µM | CAKI-1 29.4 µM | KM12 > 100 µM
